The values that follow come from ChEMBL document CHEMBL1157539, “Thousands of chemical starting points for antimalarial lead identification” (Nature, 2010).

The test deals with Plasmodium falciparum. The test can be described thus: GSK_TCMDC: Inhibition of Plasmodium falciparum 3D7 in whole erythrocytes, using parasite LDH activity as an index of growth. The class given is functional, organism-based. Conditions: Plasmodium falciparum, 3D7.

Structures can show the parent of a compound that is named as a salt.

As for `COc1ccc(-c2ccc(CNC3Cc4ccccc4C3)cc2)cc1S(=O)(=O)NCCN1CCCC1`, the XC50 came to 0.798 µM. The same measure for `c1cc(-c2ccc(CNCCc3ccncc3)cc2)cc(-c2nc3ccccc3[nH]2)c1`: 0.139 µM. As for `O=C(/C=C/c1ccc(Cl)c(Cl)c1)N1CCC(CN2CCC(c3c[nH]c4ccc(O)cc34)CC2)CC1`, the XC50 stood at 0.776 µM. Turning to `O=C(/C=C/c1ccc2ccccc2c1)NCCCCCN1CCC(c2c[nH]c3ccccc23)CC1`, the XC50 came out at 1.23 µM. The same measure for `O=C(NCCc1ccc(Cl)c(Cl)c1)c1ccc(CNC(=O)c2ccc(O)c(-c3ccc(Cl)c(Cl)c3)c2)cc1`: 0.812 µM; for `Oc1ccccc1CNCC(O)c1cccc(C(F)(F)F)c1` (stereo not given): 0.526 µM; for `Cc1cccc(OCC2CCN(c3ncc(C(=O)NC4CC4)cc3Cl)CC2)c1`: 1.33 µM. The same measure for `CN(C)CC1CCCN1Cc1ccccc1-c1cnn(C)c(=O)c1Oc1ccc(F)cc1` (stereo not given): 1.22 µM; for `CN(C)c1ccc(Br)c(Br)c1`: 0.975 µM; for `Oc1ccc(Nc2nc(NCc3ccco3)c3ccccc3n2)cc1`: 0.674 µM. In the case of `Cc1cnc2ccc(NS(=O)(=O)c3sc4ccc(Cl)cc4c3C)cc2c1N1CCNCC1` it was 0.807 µM; in that of `CC(C)(C)c1ccc(NC(=O)N[C@@H]2CCN(c3ccnc4ccccc34)C2)cc1`, 0.35 µM. On to `O=C(Nc1ccc(OC2CCN(Cc3ccccc3)C2)c(Cl)c1)c1cccs1` (stereo not given), for which the XC50 amounted to 0.388 µM.

Take `CCC(C)CN1CCC(N(C)c2cc(NC(=O)c3ccc(F)cc3)ccn2)CC1` (stereo not given): the XC50 was determined as 0.977 µM.

In the case of `CC(Cc1ccc(OCCCCOc2ccccc2)cc1)NCCC1CCCN1C` (stereo not given), the XC50 was 0.0397 µM. In the case of `CS(=O)(=O)c1ccc(CCNCc2ccc(-c3ccc(CN(C(=O)C4CC(=O)c5ccccc54)C4Cc5ccccc5C4)cc3)nc2)cc1` (stereo not given) it was 0.858 µM. In turn, `Cc1cccc2nc(-c3ccc(-c4ccc(CN5CCC(CO)CC5)cc4)s3)[nH]c12` returned an XC50 of 0.812 µM. In the case of `Fc1ccc(C=NN=c2cc[nH]c3ccc(C(F)(F)F)cc23)cc1` it was 1.1 µM. As to `O=C(Nc1cccc(C(F)(F)F)c1)Nc1ccc(Cl)c(C(F)(F)F)c1`, the XC50 is 0.89 µM.

On to `NC(=O)c1ccc(NCC(=O)Nc2cccc(-c3cccc(-c4nc5cc(F)ccc5[nH]4)c3)c2)cc1`, for which the XC50 came out at 0.867 µM. The same measure for `COc1ccc(O)c(C(=O)NCCc2ccc(OC)c(-c3ccc(C(C)(C)C)cc3)c2)c1`: 1.03 µM. As for `OCCN1CCN(C(=S)Nc2ccccc2)CC1`, the XC50 turned out to be 0.936 µM. In the case of `COc1ccccc1N1CCN(C(C(=O)NCc2ccc(C)cc2)c2ccc(C)cc2)CC1` (stereo not given) it was 0.932 µM; in that of `CN(C)CCOc1ccc(-c2cc(-c3ccncc3)c(-c3ccc(Cl)c(O)c3)o2)cc1`, 0.214 µM; in that of `CC1(C)NC(N)=NC(=N)N1OCOc1cc(Cl)c(Cl)cc1Cl`, 0.0032 µM.

Compound `CCc1ccc(CNCC(CCNc2cc(=O)c3ccccc3[nH]2)NCc2cc(Br)cc(Br)c2)o1` (stereo not given) displayed an XC50 of 0.638 µM.

For the compound `CCOc1ccc2ccccc2c1C(=O)Nc1cc(C)nn1-c1nc(C)cc(=O)[nH]1`, the XC50 was determined as 1.01 µM. The same measure for `COc1ccc(-c2cccc(NC(=O)c3cccc(Cl)c3)c2)cc1CN1CCC(O)CC1`: 0.791 µM; for `Nc1nc(N)c2c(ccc3ccccc32)n1`: 0.749 µM; for `COc1cc(F)c2nccc([C@@H](O)CN3CCC(NC(=O)OCc4ccccc4)C(F)C3)c2c1` (stereo not given in full): 0.407 µM. The same measure for `Cc1ccc(Nc2nc3cc(Nc4ccnc(Nc5cccc(CS(C)(=O)=O)c5)n4)ccc3o2)cc1`: 0.923 µM; for `CON(CCCN(C)C)C(=N)N`: 1.08 µM; for `CCCCN(CCCC)Cc1cc(Nc2ccnc3cc(Cl)ccc23)ccc1O`: 0.0172 µM. In the case of `O=C(Nc1cccc(-c2ccc(-c3nc4cc(F)ccc4[nH]3)cc2)c1)Nc1ccc(F)c(F)c1F` it was 0.113 µM. Compound `CN1CCC(N2CCN(Cc3cccc(-c4ccc(-c5nc6cc(C(F)(F)F)ccc6[nH]5)cc4)c3)CC2)CC1` showed an XC50 of 0.14 µM.

As for `CCOC(=O)c1cncc(/C=C/c2cc(C)cnc2N)c1`, the XC50 stood at 0.424 µM. In the case of `O=S(=O)(Nc1ccc(CCN2CCC(N3CCCCC3)CC2)cc1)c1cccc(C(F)(F)F)c1` it was 0.702 µM; in that of `CN(C)c1cccc(NC(=O)NC2N=C(c3ccccc3)c3ccccc3N(CC(=O)N(C)c3ccccc3)C2=O)c1` (stereo not given), 0.947 µM.

The compound `CN1CCN(C(C(=O)NCc2cc(Cl)cc(Cl)c2)c2ccccc2-c2ccsc2)CC1` (stereo not given) returned an XC50 of 0.936 µM.

`Cc1nc(C)c(C2CCC(c3ccc(Cl)cc3)CC2)c(O)c1Cl` (stereo not given) showed an XC50 of 0.0518 µM.

On to `COc1cc2nc(N3CCC(CNC(=O)c4ccc(C(C)=O)cc4)CC3)nc(N)c2cc1OC`, for which the XC50 was 1.12 µM. In the case of `OC(CNCc1ccco1)Cn1c2ccc(Br)cc2c2cc(Br)ccc21` (stereo not given) it was 1.07 µM; in that of `CC[C@H]1CN2CC[C@H]1C[C@H]2[C@H](O)c1cc(-c2cccc(F)c2)nc2ccc(OC)cc12`, 0.0582 µM. `CN1CCCc2ccc(NC(=O)c3cc(-c4ccc(Cl)cc4)cs3)cc2C1` registered an XC50 of 0.793 µM.

As to `COc1ccc2ncc(C#N)c(CCN3CCC(NCc4ccc5c(c4)OCCO5)CC3)c2c1`, the XC50 came out at 0.91 µM.

The compound `COc1ccccc1-c1[nH]c2ccccc2c1CN1CCC(c2c(C)cccc2C)CC1` registered an XC50 of 0.918 µM. The same measure for `CC[C@H](C)CNC(=O)c1cncc(-c2ccc(CNC3CCCC3)cc2)c1`: 1.12 µM; for `COc1ccc(-c2nc3cccnc3n2CC(=O)Nc2c(C)cc(C)cc2C)c(OC)c1`: 0.927 µM; for `COc1cc2nc(-c3ccc(Br)cc3)cc(N)c2cc1OC`: 0.173 µM.

For the compound `O=C(Nc1ccc(Cl)c(Cl)c1)Nc1ccccc1N1CCNCC1`, the XC50 was 0.709 µM. In the case of `COc1ccccc1C1CCN(C2CCC(NC(=O)/C=C/c3cc(F)cc(F)c3)CC2)CC1` (stereo not given) it was 1.11 µM. In the case of `Oc1c(C(Nc2nc3ccccc3s2)c2ccccc2)ccc2cccnc12` (stereo not given) it was 0.646 µM.

For the compound `CC(NCCc1cccc(Cl)c1)C(O)c1ccc(OCCCCCCOc2ccc(C(O)C(C)NCCc3cccc(Cl)c3)cc2)cc1` (stereo not given), the XC50 was 0.399 µM. The same measure for `NOCCCCOc1cc(Cl)c(Cl)cc1Cl`: 0.175 µM; for `Nc1nc(O)c2c(n1)CCc1c(Br)cccc1-2`: 0.697 µM; for `COCCSc1nc2scc(C)c2c(=O)n1Cc1cccc(OC)c1`: 0.912 µM.

For `COCCNCc1cccc(-c2ccc(CNC3CCN(Cc4ccccc4)CC3)cc2)c1`, the XC50 is 0.508 µM.

With `COc1cc(F)c2ncc(Cl)c(CCN3CCC(NCc4ccc5c(n4)NC(=O)CS5)CC3)c2c1`, the XC50 amounted to 0.482 µM.

Take `CCOC(=O)C1=C(C)NC2=C(C(=O)CCC2)C1c1cn(Cc2ccc(Cl)cc2Cl)nc1-c1ccccc1` (stereo not given): the XC50 came to 0.625 µM.

The compound `COC(=O)c1cccc(CNCc2ccc(-c3ccc(-c4nc5cccc(C)c5[nH]4)s3)cc2)c1` had an XC50 of 0.402 µM.

On to `c1ccc2c(c1)ncn2-c1ccnc(Nc2ccncc2)n1`, for which the XC50 was determined as 0.646 µM. In the case of `COc1cccc(NC(=O)COc2ccc(C(=O)Nc3nc4ccccc4[nH]3)cc2)c1` it was 0.97 µM; in that of `COc1ccc(Nc2nccc(NCCNC(=O)Nc3ccccc3F)n2)cc1`, 1.32 µM; in that of `CC(=O)Oc1cc(OCc2ccccc2)c(OC(C)=O)c(OCc2ccccc2)c1`, 0.407 µM. The same measure for `Cc1cccc2nc(-c3ccc(-c4ccc(CNCC5CCCO5)cc4)s3)[nH]c12` (stereo not given): 0.739 µM; for `O=C(NCC1CCC(CNCCc2ccccc2)CC1)Nc1ccc(Cl)c(Cl)c1` (stereo not given): 0.745 µM.

Turning to `O=C(Nc1ccc(Cn2ncc(N3CCCNCC3)c(Cl)c2=O)cc1)Nc1cccc(Oc2ccccc2)c1`, the XC50 worked out at 0.987 µM. The same measure for `CC(C)Cn1cc(C2CCN(CCN3CCC(CNC(=O)c4ccc(-c5ccc(C(F)(F)F)cc5)cc4)CC3)CC2)c2ccccc21`: 0.753 µM; for `Fc1cccc(C=NNc2ccnc3cc(Cl)ccc23)c1`: 0.528 µM; for `Cc1cccc2nc(-c3ccc(-c4cccc(CN5CCN(c6ccncc6)CC5)c4)s3)[nH]c12`: 0.126 µM. In the case of `O=C(NCCCN1CCC(N2CCCCC2)CC1)C1=Cc2cc(Br)ccc2OC1` it was 0.853 µM; in that of `COc1ccccc1CCN1CCC(CN(C)Cc2ccc(O)c(Cl)c2)CC1`, 0.335 µM; in that of `CCN(CCCN1CCCCC1)c1cc(C)nc(Nc2ccc(C(F)(F)F)cc2)n1`, 0.374 µM.

`N[C@@H](Cc1cc(I)c(Oc2ccc(O)c(C(=O)O)c2)c(I)c1)C(=O)O` gave an XC50 of 0.991 µM.

`CC(C)CCN1CCC(Oc2ccc(NC(=O)c3cccs3)cc2Cl)CC1` gave an XC50 of 0.341 µM. The same measure for `CCN(CC)CCN(Cc1ccc(-c2ccc(C(F)(F)F)cc2)cc1)C(=O)Cn1c(CCc2cccc(F)c2F)cc(=O)c(C)c1C`: 0.624 µM; for `CS(=O)(=O)CCNc1nccc(N2CCc3ncnc(Nc4ccc(OCc5cccc(F)c5)c(Cl)c4)c3C2)n1`: 0.132 µM. For the compound `O=C1COC2(CN1C1CCN(Cc3ccc(O)cc3Cl)C1)c1ccccc1-c1ccccc12` (stereo not given), the XC50 is 1.33 µM. The same measure for `Cc1ccccc1CNCC(O)c1cccc(C(F)(F)F)c1` (stereo not given): 0.881 µM; for `CC(Cc1ccc(OCCCCOc2ccccc2)cc1)NCCCn1ccnc1` (stereo not given): 0.167 µM.

Turning to `O=C(C=Cc1ccc(Cl)c(Cl)c1)NCCCCCN1CCC(CCNC(=O)/C=C/c2ccccc2)CC1`, the XC50 was found to be 0.783 µM.

As for `Cc1cc(N[C@@H](Cc2ccccc2)C(=O)Nc2ccccc2)nc(NCCc2cccnc2)n1`, the XC50 is 1.34 µM. The same measure for `CN1CCCN(Cc2ccc(-c3cccc(NC(=O)c4ccc(C#N)cc4)c3)cc2)CC1`: 0.744 µM. In the case of `NC1CCCN(Cc2ccc(-c3cccc(-c4nc5ccccc5[nH]4)c3)cc2)C1` (stereo not given) it was 0.721 µM. In the case of `CCOC(C(=O)OCCN(C(C)C)C(C)C)(c1ccccc1)c1ccccc1` it was 0.874 µM; in that of `COCCNCc1ccc(-c2cccc(CNc3ccc(OC)cc3)c2)cc1`, 1.04 µM; in that of `O=C(/C=C/c1ccc(Cl)c(Cl)c1)NC1CCC(CN2CCC(Cc3cc4ccccc4[nH]3)CC2)CC1` (stereo not given), 0.508 µM. `COc1cc(CNc2ncc(-c3ccsc3)c(-c3nccs3)n2)cc(OC)c1` had an XC50 of 0.126 µM. With `N=C(N)Nc1nc(-c2cccc(NC(=O)CCCCCCCON3C(N)=NC(N)=NC34CCCCC4)c2)cs1`, the XC50 came to 0.0435 µM. The same measure for `c1ccc(CC2=NCCN2)cc1` [TOLAZOLINE HYDROCHLORIDE]: 0.188 µM.
